Data on 17 molecules can be found in ChEMBL document CHEMBL1141943, “Synthesis and antitubercular activity of 2-hydroxy-aminoalkyl derivatives of diaryloxy methano phenanthrenes” (2005).

≈ marks a conversion by molar mass, not a printed value.

Experiment [1] concerns Mycobacterium tuberculosis. Briefly: Antitubercular activity against Mycobacterium tuberculosis H37Rv by agar microdilution technique. It counts as functional.
For experiment [2], the system named is Mycobacterium tuberculosis. As to the kind of experiment: Antitubercular activity against Mycobacterium tuberculosis H37Rv by standard BACTEC radiometric growth assay. It counts as functional.

Broadly, the MIC is the least concentration at which growth counts as inhibited. Higher therefore signals weaker potency. Consider `COc1ccc(C(c2ccc(OCC(O)CN3CCN(Cc4ccccc4)CC3)cc2)c2cc3ccccc3c3ccccc23)cc1` (stereo unspecified), for which, in experiment [1], the minimal inhibitory concentration (MIC) came to 25 µg/mL (≈ 40.1 µM). With `CCCCNCC(O)COc1ccc(C(c2ccc(OC)cc2)c2cc3ccccc3c3ccccc23)cc1` (stereo unspecified), the MIC in experiment [1] and in experiment [2] was 6.25 µg/mL (≈ 12 µM) in each case. As to `OC(CNC1CCCCC1)COc1ccc(C(c2ccc(OCC(O)CNC3CCCCC3)cc2)c2cc3ccccc3c3ccccc23)cc1` (stereo unspecified), the minimum inhibitory concentration (MIC) in experiment [1] worked out at 6.25 µg/mL (≈ 9.1 µM); in experiment [2] it was 12.5 µg/mL (≈ 18.2 µM). For the molecule `CCN(CC)CC(O)COc1ccc(C(c2ccc(OC)cc2)c2cc3ccccc3c3ccccc23)cc1` (stereo unspecified), the MIC in experiment [1] and in experiment [2] was 6.25 µg/mL (≈ 12 µM) each time. Regarding `COc1ccc(C(c2ccc(OCC(O)CNC3CC3)cc2)c2cc3ccccc3c3ccccc23)cc1` (stereo unspecified), the minimal inhibitory concentration (MIC) in experiment [1] and in experiment [2] was 25 µg/mL (≈ 49.6 µM) throughout.

With `COc1ccc(C(c2ccc(OCC3CO3)cc2)c2cc3ccccc3c3ccccc23)cc1` (stereo unspecified), it took 25 µg/mL (≈ 56 µM) to inhibit growth in experiment [1] (MIC). Consider `COc1ccc(C(c2ccc(OCC(O)CN3CCCCC3)cc2)c2cc3ccccc3c3ccccc23)cc1` (stereo unspecified), for which the MIC in experiment [1] and in experiment [2] was 12.5 µg/mL (≈ 23.5 µM) in each case. As to `COc1ccc(C(c2ccc(OCC(O)CN3CCCC3)cc2)c2cc3ccccc3c3ccccc23)cc1` (stereo unspecified), the MIC in experiment [1] and in experiment [2] was 12.5 µg/mL (≈ 24.1 µM) each time. Turning to `CN1CCN(CC(O)COc2ccc(C(c3ccc(OCC(O)CN4CCN(C)CC4)cc3)c3cc4ccccc4c4ccccc34)cc2)CC1` (stereo unspecified), the MIC in experiment [1] and in experiment [2] was 12.5 µg/mL (≈ 18.1 µM) each time. `COc1ccc(C(c2ccc(OCC(O)CN3CCN(C)CC3)cc2)c2cc3ccccc3c3ccccc23)cc1` (stereo unspecified): the MIC in experiment [1] and in experiment [2] was 12.5 µg/mL (≈ 22.9 µM) each time. As for `COc1ccc(C(c2ccc(OCC(O)CN3CCOCC3)cc2)c2cc3ccccc3c3ccccc23)cc1` (stereo unspecified), the MIC in experiment [1] was found to be 25 µg/mL (≈ 46.8 µM). As for `COc1ccc(C(c2ccc(OCC(O)CNC3CCCCC3)cc2)c2cc3ccccc3c3ccccc23)cc1` (stereo unspecified), the figures for the minimal inhibitory concentration (MIC) in experiment [1] and in experiment [2] were 12.5 µg/mL (≈ 22.9 µM) and 6.25 µg/mL (≈ 11.5 µM), respectively. The corresponding values for `OC(COc1ccc(C(c2ccc(OCC(O)CN3CCCCC3)cc2)c2cc3ccccc3c3ccccc23)cc1)CN1CCCCC1` (stereo unspecified) are 6.25 µg/mL (≈ 9.49 µM) and 12.5 µg/mL (≈ 19 µM). Take `COc1ccc(C(c2ccc(OCC(O)CNC3CCCCCC3)cc2)c2cc3ccccc3c3ccccc23)cc1` (stereo unspecified): the MIC in experiment [1] and in experiment [2] was 3.12 µg/mL (≈ 5.57 µM) each time. For `OC(COc1ccc(C(c2ccc(OCC(O)CN3CCCC3)cc2)c2cc3ccccc3c3ccccc23)cc1)CN1CCCC1` (stereo unspecified), the minimal inhibitory concentration (MIC) in experiment [1] and in experiment [2] was 12.5 µg/mL (≈ 19.8 µM) each time. For `NNC(=O)c1ccncc1` [ISONIAZID], the MIC in experiment [1] is 0.05 µg/mL (≈ 0.365 µM); in experiment [2], 0.025 µg/mL (≈ 0.182 µM).

With `CO[C@H]1/C=C/O[C@@]2(C)Oc3c(C)c(O)c4c(O)c(c(/C=N/N5CCN(C)CC5)c(O)c4c3C2=O)NC(=O)/C(C)=C\C=C\[C@H](C)[C@H](O)[C@@H](C)[C@@H](O)[C@@H](C)[C@H](OC(C)=O)[C@@H]1C` [RIFAMPIN], the MIC in experiment [1] was 0.1 µg/mL (≈ 0.122 µM); in experiment [2], 0.2 µg/mL (≈ 0.243 µM).
